Test results taken from PubChem BioAssay (NCI).
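Results reflect a 48-hour exposure of cells in 96-well plates to compound at five concentrations. TGI: concentration producing complete growth inhibition.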

Experiments:
Assay in all cases: DTP human tumour cell line panel, 48 h
CCRF-CEM leukemia = tested on: CCRF-CEM leukemia
DU-145 prostate = tested on: DU-145 prostate
SF-295 CNS = tested on: SF-295 CNS
SR leukemia = tested on: SR leukemia
OVCAR-5 ovarian = tested on: OVCAR-5 ovarian
PC-3 prostate = tested on: PC-3 prostate
ACHN renal = tested on: ACHN renal
OVCAR-4 ovarian = tested on: OVCAR-4 ovarian
M19-MEL melanoma = tested on: M19-MEL melanoma
DLD-1 colon = tested on: DLD-1 colon
DMS 273 small cell lung = tested on: DMS 273 small cell lung
KM20L2 colon = tested on: KM20L2 colon

Compound	TGI (CCRF-CEM leukemia) [µM]	TGI (DU-145 prostate) [µM]	TGI (SF-295 CNS) [µM]	TGI (SR leukemia) [µM]	TGI (OVCAR-5 ovarian) [µM]	TGI (PC-3 prostate) [µM]	TGI (ACHN renal) [µM]	TGI (OVCAR-4 ovarian) [µM]	TGI (M19-MEL melanoma) [µM]	TGI (DLD-1 colon) [µM]	TGI (DMS 273 small cell lung) [µM]	TGI (KM20L2 colon) [µM]
Cc1cc(O)c(C(C)C)cc1C1(c2cc(C(C)C)c(O)cc2C)OC(=O)c2ccccc21	3.1	4.41	3.69	4.02	5.92	4.95	8.99	5.26				
O=C(/C=C/c1csc(-c2ccccc2)n1)NCc1ccc(C(=O)NCc2ccccc2)cc1	> 100	> 100	> 100	> 100	> 100	> 100	> 100	> 100				
C#CCOCC12C=CC(O1)C1C(=O)OCC12 (stereo unspecified)	> 100	> 100	> 100	> 100	> 100	> 100	> 100	> 100				
C/C(=C/CC[C@]1(CO)CC[C@]2(CO)[C@H](CC[C@@H]3[C@@]4(C)CC[C@H](OC5OCC(O)C(O)C5OC5OC(CO)C(O)C(O)C5O)C(C)(C)[C@@H]4CC[C@]32C)[C@H]1O)CO (stereo partly specified)	> 100	> 100	> 100	> 100	> 100	> 100	> 100	> 100				
Cc1ccc(/C(O)=C/C(=O)C(=O)NN=C(c2ccccc2)c2ccccc2)cc1	> 100	> 100	> 100	> 100	> 100	> 100	> 100	> 100				
CCOc1cc(NC(C)=O)ccc1C(=O)NN1C(=O)C(Cl)C1c1ccco1 (stereo unspecified)	49.1	31.1	30.5	35.9	36.4	32.3	29.1	33.3				
COc1ccc(-n2cnc3c(NC(CCSC)C(=O)O)ncnc32)cc1 (stereo unspecified)	> 100	> 100	> 100	> 100	> 100	> 100	> 100	> 100				
O=c1onc2c3ccccc3ncn12	> 100	> 100	> 100	> 100	> 100	> 100	> 100	> 100				
C[C@H]1C=C2[C@@H]3CC(C)(C(=O)O)CC[C@]3(C)CC[C@]2(C)[C@]2(C)CC[C@H]3C(C)(C)[C@@H](OC(=O)c4cccc5c(=O)c6ccccc6[nH]c45)CC[C@]3(C)[C@@H]12 (stereo partly specified)	> 100	> 100	> 100	> 100	> 100	> 100	> 100	> 100				
COc1ccc(/C=C2\CN(C)C/C(=C\c3ccc(OC)c(OC)c3OC)C2=O)c(OC)c1OC	0.0805	1.39	1.01	0.0854	0.656	1.43	0.565	1.13				
c1ccc2c3c([nH]c2c1)C1CCCN1CC3 (stereo unspecified)	> 10	> 10	> 10	> 10	> 10	> 10	> 10	> 10				
CN(C)CCCN1c2ccccc2CCc2ccc([N+](=O)[O-])cc21	> 100	38.6	34.3	> 100	> 100	> 100	> 100	> 100				
CCN(c1cccc(NC(=S)Nc2ccccc2N(CC)c2cc(-c3ccccc3)no2)c1)c1cc(-c2ccccc2)no1	> 100	> 100	> 100	> 100	> 100	> 100	> 100	> 100				
CC(NC(C)(C)C)C(=O)c1cccc(Cl)c1 (stereo unspecified)	> 100		> 100				> 100	> 100	> 100	> 100	> 100	> 100
C=CCOC(=O)C1C2OC3(C(C(=O)OC)=C2C(=O)OC)c2ccccc2CCC13 (stereo unspecified)	> 10	> 10	> 10	> 10	> 10	> 10	> 10	> 10				
COC(=O)CC1NC(=O)C1C1(C)OCCO1 (stereo unspecified)			> 100	> 100			> 100	> 100	> 100	> 100	> 100	> 100
COc1cc(-c2cc(-c3cc([N+](=O)[O-])c(/C=N/NC(=O)c4ccncc4)o3)ccc2OC)ccc1C			> 100		> 100		> 100	> 100	> 100	> 100		> 100
COC12c3ccccc3-c3ccccc3C1[C@H]1C(=O)OC(=O)[C@H]12 (stereo partly specified)	> 10	> 10	> 10	> 10	> 10	> 10	> 10	> 10				
COC(=O)C1=C(OC(=O)c2ccccc2)C(C(=O)OC)[C@]2(O)[C@@H](C(=O)OC)[C@H]1C[C@@H](c1ccccc1)[C@@H]2C(=O)OC (stereo partly specified)	10.6	30.3	36.7	31.3	73.9	23.7	72.4	> 100				
